Like-named read-outs stand apart in the source and are kept apart here.
Tests used:
[1] = biological target: T1, SurA (Escherichia coli, UniProt P0ABZ6); format: binding, E. coli; design: key: An increase of the inflection points in the nanoDSF experiments is indicated by (+); a decrease by (-); no changes with (none); ambiguity with a question mark (?); settings: 100 µM compound, 2 µM SurA, 40 mM HEPES pH 7.4
Description: Nano Differential Scanning Fluorimetry (nanoDSF) measurements of the QHL (qualified hit list) compounds provided by the ELF were performed on a Tycho system (NanoTemper).

[2] = biological target: T1, SurA; format: biochemical, E. coli; design: key to primary assay SurA: SurA inhibition = +; no SurA inhibiton = 0
Text: The biological function of SurA is to bind and to keep outer membrane proteins that have reached the periplasm in an unfolded but folding-competent state. The inventors' assay is based on this interaction and uses firefly Luciferase (fLuc) as a non-native substrate. […] This is exploited in the assay (Figure 3). The loss of tertiary structure of fLuc leads to the exposure of binding sites for SurA. It is known that SurA binds selectively to a special group of substrates. These substrates have in common the specific patterns of hydrophobic amino acids that are highly enriched in the beta strands of integral outer membrane proteins. These motifs are present in OMPs of all Gram-negative bacteria and in fLuc as well. Upon mild heat treatment of fLuc and its subsequent partial unfolding, fLuc is accepted as a substrate by SurA. Of note, these intermediates served as reporter substrates to determine the activity of a cytoplasmic folding chaperone. […] This interaction remains stable upon temperature reduction. Next, the temperature of the assay is reduced to room temperature and luciferase activity is subsequently measured by addition of Luciferin and ATP. In conditions without SurA, fLuc will refold into its active conformation resulting in a luminescence signal. […] In the case of presence of a SurA inhibitor (Figure 3 B), fLuc will adopt an active conformation resulting in an increased luminescence signal compared to conditions without SurA inhibition.
In short, the Luciferase based SurA activity assay was performed in SurA Activity Assay Buffer (40 mM HEPES pH 7.4, 20 mM MgSO4, 0.5 g/l BSA). SurA aliquots were thawn at RT, activated by mild heat treatment and cooled down to RT for 10 min. SurA concentration was adjusted to 1.6 µM in Activity Assay Buffer (protein solution). […] Subsequently, the assay plate was cooled for 5 min at 4°C followed by 10 min incubation at RT prior to luminescence measurement. Luminescence was measured in a TECAN infinite M200 pro plate reader for each well individually after injection of 10 µl Solution A.

[3] = biological target: T1, SurA; test: biochemical; format: biochemical, E. coli
Text: The biological function of SurA is to bind and to keep outer membrane proteins that have reached the periplasm in an unfolded but folding-competent state. The inventors' assay is based on this interaction and uses firefly Luciferase (fLuc) as a non-native substrate. […] The loss of tertiary structure of fLuc leads to the exposure of binding sites for SurA. It is known that SurA binds selectively to a special group of substrates. These substrates have in common the specific patterns of hydrophobic amino acids that are highly enriched in the beta strands of integral outer membrane proteins. These motifs are present in OMPs of all Gram-negative bacteria and in fLuc as well. Upon mild heat treatment of fLuc and its subsequent partial unfolding, fLuc is accepted as a substrate by SurA. Of note, these intermediates served as reporter substrates to determine the activity of a cytoplasmic folding chaperone. […] This interaction remains stable upon temperature reduction. Next, the temperature of the assay is reduced to room temperature and luciferase activity is subsequently measured by addition of Luciferin and ATP. In conditions without SurA, fLuc will refold into its active conformation resulting in a luminescence signal.
Of note, the SurA activity assay was performed similar at the ELF but with optimizations in regard of the higher throughput including the change of the plate format to 1536-wells. The SurA activity assay performed at the ELF contained the following steps (adapted from the QHL report provided by the ELF). First, SurA was thawed at RT and heat activated in a water bath. Next, the vial was taken out of the water bath and cooled down to RT for 30 min @ bench. […] Noteworthy, the SurA solution was kept on ice. 15 nL of 4 mM compound in DMSO were added to columns 9-48 with Echo acoustic nano-dispenser (ECHO). Additionally, 15 nL 100% DMSO were transferred to columns 1-8 with ECHO. […] The plate was spun for 60 seconds at 1000 rpm to ensure proper fluid localization at the bottom of the wells. […] Again, the plate was centrifuged for 60 seconds at 1000 rpm. […] To allow refolding of the luciferase, the plate was incubated 30 minutes at RT.

[4] = biological target: T1, SurA; format: binding, E. coli; design: key to nanoDSF pH 5 Ti#1 / nanoDSF pH 5 Ti#2 / nanoDSF pH 7.4 Ti#1 / nanoDSF pH 7.4 Ti#2: An increase of the inflection points in the nanoDSF experiments is indicated by (+); a decrease by (-); no changes with (none); ambiguity with a question mark (?)
Description: To this end, 5 µl of a 2 mM compound solution in DMSO were mixed with 95 µl of a 20 µM SurA solution. Technical triplicate measurements were performed on a Prometheus system (NanoTemper).

[5] = Solubility estimate based on turbidity (OD600nm); format: physicochemical
Description: The activity in the primary assay is distinguished into influence on SurA (SurA inhibition = +; no SurA inhibiton = 0) or interference with Luciferase per se (no influence on Luc activity = 0; enhances Luc activity = +; reduces Luc activity = -).

[6] = biological target: T1, SurA; test: biochemical; format: binding, E. coli
Description: His-tagged SurA was labeled with the Monolith His-Tag Labeling Kit RED-tris-NTA (Nanotemper) according to the manufacturer's instructions.
Microscale thermophoresis measurements were performed in 40 mM HEPES pH 7.4, 0.05 % Tween-20 at 25°C with a Monolith NT.115 (NanoTemper) in standard capillaries.

[7] = system: HepG2 cells; test: Cytotoxicity assay, LDH release; format: cell-based; settings: 500 µM compound
Description: Cell cytotoxicity was evaluated monitoring the LDH release from HepG2 cells using the CytoTox 96® Non-Radio Cytotoxicity Assay (Promega) according to the manufacturer's instructions. […] After incubation, 25 µl were transferred into a fresh 96-well flat clear bottom plate and mixed with 25 µl CytoTox 96® Reagent. LDH release reactions were incubated 30 min at RT in the dark and 25 µl Stop Solution were added. LDH release was measured at 490 nm in a multiplate reader.

[8] = biological target: Luciferase (Photinus pyralis, UniProt P08659); test: Primary assay buffer control without SurA: interference with Luciferase per se; format: biochemical, firefly; design: key: no influence on Luc activity = 0; enhances Luc activity = +; reduces Luc activity = -
Sequence of Luciferase (P08659 whole entry): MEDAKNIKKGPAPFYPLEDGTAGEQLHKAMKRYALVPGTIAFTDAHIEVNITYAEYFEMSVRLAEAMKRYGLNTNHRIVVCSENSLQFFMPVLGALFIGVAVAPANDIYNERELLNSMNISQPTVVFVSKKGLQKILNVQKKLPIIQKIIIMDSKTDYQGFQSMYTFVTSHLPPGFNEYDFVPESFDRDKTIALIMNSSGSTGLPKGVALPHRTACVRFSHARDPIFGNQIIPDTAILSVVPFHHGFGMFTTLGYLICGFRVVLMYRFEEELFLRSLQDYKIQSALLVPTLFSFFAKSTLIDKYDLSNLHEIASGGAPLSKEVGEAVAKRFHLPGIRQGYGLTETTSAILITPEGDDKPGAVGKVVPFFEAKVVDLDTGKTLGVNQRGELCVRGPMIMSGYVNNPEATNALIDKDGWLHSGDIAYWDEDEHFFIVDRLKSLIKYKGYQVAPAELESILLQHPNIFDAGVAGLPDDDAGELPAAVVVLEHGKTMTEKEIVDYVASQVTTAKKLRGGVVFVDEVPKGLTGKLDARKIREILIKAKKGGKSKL
Description: In short, the Luciferase based SurA activity assay was performed in SurA Activity Assay Buffer (40 mM HEPES pH 7.4, 20 mM MgSO4, 0.5 g/l BSA). SurA aliquots were thawn at RT, activated by mild heat treatment and cooled down to RT for 10 min. SurA concentration was adjusted to 1.6 µM in Activity Assay Buffer (protein solution). Solution A containing 10 mM ATP as well as 0.3 mM Luciferin (Promega Beetle Luciferin, Potassium Salt) in water was prepared. Luciferase working solution was prepared by diluting 1 ml Luciferase working stock (100 nM) with 9 ml assay buffer. 33 µl of the protein solution were added to every 2nd row of a well of a 384-well PS, white, flat bottom plate. […] Subsequently, 2 µl of compound in DMSO were added in quadruplicates (4 wells each of protein solution and buffer controls). These compound solutions could contain either various compounds or different dilutions of the same compound allowing screening inhibitor activity in a dose dependent manner. After compound addition, plates were incubated 15 min at RT. After this incubation, 5 µl of Luciferase working solution were added to each well. […] Subsequently, the assay plate was cooled for 5 min at 4°C followed by 10 min incubation at RT prior to luminescence measurement. Luminescence was measured in a TECAN infinite M200 pro plate reader for each well individually after injection of 10 µl Solution A. […]

[9] = system: E. coli ATCC 25922; test: Minimal inhibitory concentration assay / Vancomycin sensitizer MIC assay; format: cell-based; settings: Escherichia coli, ATCC25922
Text: The intended effect of a SurA inhibitor should be the induction of a disturbance of the outer membrane composition resulting in an increased susceptibility to antibiotic treatment. Of note, Vancomycin is typically not used to treat infections with Gram-negative bacteria, because it is excluded by the OM and not efficient at concentrations that could be achieved in patients. However, at appropriate dosing in vitro it can be used to detect outer membrane defects. For determining a potential sensitizing effect of Vancomycin treatment, the inventors first tested whether the compounds at hand were bactericidal per se. Therefore, the inventors performed a minimal inhibitory concentration (MIC) assay. To this end, 5 ml overnight cultures of E. coli BW25113 (Keio-Collection reference strain), E. coli JW2496-3 (Keio-Collection single gene knockout for bamB, which suffers from decreased outer membrane integrity) and E. coli ATCC 25922 (a reference strain recommended for antibiotic susceptibility testing) were grown in Mueller Hinton Broth, Cation adjusted (MHB-II). […] After o/n incubation, bacterial growth was quantified by measuring the optical density at 600 nm wavelength in a multiplate reader. […] Of note, the bactericidal effect of Vancomycin was assessed similarly for each test strain using Vancomycin concentrations ranging from 512 - 0.25 mg/ml. […]

[10] = biological target: firefly Luciferase (Photinus pyralis, UniProt P08659); test: Luciferase interference deselection assay (D1) at the ELF; format: biochemical
Sequence of firefly Luciferase (P08659 whole entry): as above
Description: The confirmed actives of ELF program ELFSC17_02 were tested as serial dilutions in the primary assay and deselection assay to generate dose response curves (DRCs). The serial dilutions consisted of 7 equidistant concentration steps (20 µM to 27.4 nM) and were tested in the primary and in the deselection assay in duplo (n=2) in 1536-well format. […] For the luciferase interference deselection assay in DRC-format, luciferase was left out in the Max effect wells, mimicking a 100% effect situation and resulting in a decreased signal. Compounds showing a signal decrease larger than 5 times the standard deviation (Z-score > 5) were identified as luciferase inducer. […] The ActivityBase application (IDBS) was used to analyze the data and to calculate quality parameters like Z-prime and Signal to Background ratio (S/B). For all compounds the % effect was calculated for all seven concentrations. ActivityBase was also used to calculate the pEC50 and Hill Slope. […] For compounds where no curve was fitted but reached >50% effect at 20 µM the Fit_Max was locked at 100% effect. For compounds where no curve was fitted but reached 100% effect at 20 µM and descended to <50% at 27 nM the Fit_Min was locked at 0%.

T1 sequence (P0ABZ6 21-428): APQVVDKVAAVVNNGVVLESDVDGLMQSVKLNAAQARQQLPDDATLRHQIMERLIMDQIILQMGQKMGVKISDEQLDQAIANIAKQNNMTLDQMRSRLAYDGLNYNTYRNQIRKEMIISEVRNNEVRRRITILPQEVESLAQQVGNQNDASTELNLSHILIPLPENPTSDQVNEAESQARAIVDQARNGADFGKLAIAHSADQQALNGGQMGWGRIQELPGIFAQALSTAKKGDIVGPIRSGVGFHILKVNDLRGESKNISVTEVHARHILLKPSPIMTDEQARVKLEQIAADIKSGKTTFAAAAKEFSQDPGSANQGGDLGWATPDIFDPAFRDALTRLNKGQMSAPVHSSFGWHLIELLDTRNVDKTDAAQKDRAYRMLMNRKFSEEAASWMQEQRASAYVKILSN

With `CN(C)c1ccc(-c2nc3cc(NC(=O)Cn4cc5ccccc5n4)ccc3[nH]2)cc1` [QHL-24, N-(2-(4-(dimethylamino)phenyl)-1H-benzo[d]imidazol-5-yl)-2-(2H-indazol-2-yl)acetamide] the “Re-evaluation (Tuebingen) nanoDSF (Tycho) Ti#1” value [1] was “none”, the “Re-evaluation (Tuebingen) nanoDSF (Tycho) Ti#2” value [1] was “+” and the “SurA inhibition in the Luciferase-based SurA activity assay (in words)” value [2] was “very high SurA inhibition”. The “Primary Assay ICmax” value ([2]; concentration of maximum SurA inhibition, dose response up to 250 µM, resynthesized/repurchased compounds) was 5 to 10 µM, the “primary assay SurA” value ([2]; influence on SurA) was “+” and the IC50 [3] was 3.55 µM. For the same compound, the “Primary assay (P1) % Effect” value ([3]; ELF library screen, 1536-well) was 151%, the “Primary assay (P1) Z-score” value ([3]; ELF library screen, 1536-well) was 191.97 and the LipE ([3]; listed under calculated properties) was 1.39. For the same compound, the “thermal stability of SurA as detected by nanoDSF (in words)” value [4] was “affected the thermal stability of SurA”, the “nanoDSF pH 7.4 Ti#1” value ([4]; 40 mM HEPES pH 7.4, 150 NaCl) was “none” and the “nanoDSF pH 7.4 Ti#2” value ([4]; 40 mM HEPES pH 7.4, 150 NaCl) was “-”. The “nanoDSF pH 5 Ti#1” value ([4]; 50 mM HAc pH 5) was “none”, the “nanoDSF pH 5 Ti#2” value ([4]; 50 mM HAc pH 5) was “+” and the “solubility (in words)” value [5] was “poor solubility”. The Kd [6] was 0.02 to 0.03 mM, the “Re-evaluation (Tuebingen) MST score” value ([6]; re-evaluation of QHL compound remainders) was “inconclusive” and the Kd ([6]; read-out: MST (Kd in mM)) was 0.02 to 0.03 mM. The “CytoTox (observation in the well)” value [7] was “precipitate”, the CytoTox ([7]; LDH release, 1 h at 37°C) was 7.87% and the “primary assay Luciferase” value [8] was “-”. For the same compound, the MIC [9] was under 256 µg/mL, the IC50 [10] was 38 µM and the “Deselection (D1) plC50” value ([10]; Luciferase interference, 7 concentration steps 20 µM to 27.4 nM) was 4.42.
